# Source: patent US20230333087A1, “METHODS FOR MONITORING PATIENT RESPONSE TO TREATMENT OF RETINAL OXIDATIVE DISEASES” (BioJiva LLC, priority 2022, published 2023)
# What was measured:
# Format in all cases: in vivo, C57BL/6J mice
# retinal function = test: Electroretinography
# Procedure: (§1) Electroretinography was conducted on mice fed with D-DHA or natural DHA for 4 weeks to evaluate retinal function. […] Thus, using this measure, incorporation of D-DHA had no impact on retinal function (FIG. 7A). […] Toluidine blue staining was performed on plastic sections to examine retinal histology.
# Mice were dark adapted overnight and anesthetized with the same procedure. The electroretinograms were recorded with an Espion E3 system (Diagnosys LLC, Lowell, MA) with a ganzfeld Color Dome stimulator as previously described. All electroretinography were performed at the same time of day.
# retinal structure = test: Toluidine blue staining of plastic sections, retinal histology and thickness
# Procedure: as §1
# Plastic sections (3 µm) were cut in the sagittal plane. The third eyelid was used for the orientation when embedding eye cups. Toluidine blue staining on plastic sections was used to evaluate retinal morphology.
# [1] = test system: iron-induced geographic atrophy; test: Iron-induced geographic atrophy development, imaging 4 weeks after injection; settings: 4 weeks diet before and 4 weeks after iron injection
# Source text: To evaluate whether D-DHA could protect against geographic atrophy in this model, mice were continued on respective diets for 4 weeks after iron or saline injection. […] This corresponded to photoreceptor (white arrows) and RPE degeneration (black arrows) in OCT scans (FIG. 10C). […] Taken together, […] retinal D-DHA provided long-term protection against the geographic atrophy development induced by iron.
# Adult male wild-type C57BL/6J mice (Stock No.000664, Jackson Labs, Bar Harbor, ME, USA) were housed in standard conditions under cyclic light (12 h:12 h light-dark cycle). Mice had ad libitum access to water and food. Beginning at 2 mo of age, mice were placed on the AIN93G diet described above, supplemented with 0.25% D-DHA or DHA (control diet) for 1 week, 2 weeks, 3 weeks, or 4 weeks prior to the intravitreal injection. Mice were given an intravitreal injection of 1 µl 0.5 mM ferric ammonium citrate diluted in 0.9% NaCl (saline) (MP Biomedicals LLC, Santa Ana, CA) or
# Mice were given general anesthesia and placed on a platform. Pupils were dilated with 1% tropicamide saline solution (Akorn, Inc., Lake Forest, IL). Optical coherence tomography (OCT) imaging was performed for visualization of the retinal structure by using a Bioptigen
# Envisu (R2200, Bioptigen Inc., Durham, NC, USA) coupled to a broadband LED light source (T870-HP, Superlum Diodes, Ltd, Ireland). […]
# [2] = Ocular D-DHA accretion and elimination (0.5% D-DHA diet 77 days, DHA wash-out 73 days)
# Source text: To determine the pharmacokinetics of ocular D-DHA uptake, incorporation and elimination from the neural retina and RPE/choroid/sclera, twelve-week-old C57BL/6J mice were fed a 0.5% D-DHA containing diet (0.5 g D-DHA/100 g food, Table 3) for 77 days followed by an additional 73-day wash-out phase with DHA. At 4 weeks, >55% of the DHA in the retina was D-DHA rising to >60% at 5 weeks (FIG. 6A). At similar time points, D-DHA in the RPE/choroid/sclera was >80%. […] Based on the accretion and elimination data, two-month-old mice were fed with diets containing either D-DHA or natural DHA control for 1 week, 2 weeks, 3 weeks, and 4 weeks before the IVT injection of iron and saline control (FIG. 6B). In order to better approximate typical DHA doses in human prescription omega-3 supplements (e.g. 1,500 mg/day DHA in Lovaza), the D-DHA and DHA experimental mouse diets were adjusted to 0.25% instead of 0.5% for most of the study. On a 0.25% D-DHA diet, retinal D-DHA levels exceeded 50% at five weeks (52.2±1.5% and 55% of total DHA by our GC- and LC- based MS methods, respectively), regardless of whether eyes were injected with iron or control saline (Table 3).
# Eleven-week-old C57BL/6J mice were purchased from Jackson Laboratory (Bar Harbor, ME) and housed in 20-25 lux light conditions under 12 h day/night cycle in the Dean McGee Eye Institute Animal Research Facility at the University of Oklahoma Health Sciences Center, Oklahoma City, OK. One week after acclimatization to the vivarium with ad libitum access to laboratory rodent chow and water the animals were assigned to experimental groups. To determine ocular D-DHA accretion, the mice were switched from the laboratory rodent diet to the experimental D-DHA supplemented diet containing 0.5% D-DHA plus 6.5% high oleic soybean oil (w/w) in AIN93G^51 (Research Diet, Inc. New Brunswick, NJ). The diets were vacuum packaged and stored at - 20° C. Food was replaced three times a week with fresh food ad libitum that is stored in 4° C. after it is taken from - 20° C. Based on previous estimated retina accretion kinetics, retina, optic nerve and eye cups containing sclera, retinal pigment epithelium-choroid (RPE-choroid) were dissected from 6 mice (3 females and 3 males) at different time points during eleven weeks of D-DHA feeding. The tissues were snap frozen in liquid nitrogen, and stored in -80° C. until fatty acid analyses. After eleven weeks (77 days) on D-DHA diet, the animals were switched to the washout diet containing 0.5% DHA plus 6.5% high oleic soybean oil (w/w) in AIN93G and maintained on this diet until euthanasia at three different time points up to 73 days, when tissues were harvested for fatty acid analysis. All animal procedures were approved by the University of Oklahoma Health Sciences Center Institutional Animal Care and Use Committee.
# Three types of mass spectrometric analysis were performed to confirm repeatability of results. In the first, lipids were extracted from retinas by a modified Folch method (CHCl3/CH3OH, 2:1). derivatized to fatty acid methyl esters (FAME), and analyzed by high resolution capillary gas chromatography and specialized chemical ionization tandem mass spectrometry. Baseline resolved DHA and D-DHA total ion signal were integrated, and the proportions of D-DHA/total DHA were calculated. […] Lipids were extracted and saponified, and analyzed by ESI-LC/MS on a 4000 QTrap (Sciex) operating in enhanced negative mode over an m/z range of 320 - 345 and a scan rate of 250 /sec. […]
smiles,measurement,setting,value
"[2H]C([2H])(/C=C\CC)/C=C\C([2H])([2H])/C=C\C([2H])([2H])/C=C\C([2H])([2H])/C=C\C([2H])([2H])/C=C\CCC(=O)OCC [D-DHA, 6,6,9,9,12,12,15,15,18,18-D10-(4Z,7Z,10Z,13Z,16Z, 19Z)-docosa 4,7,10,13,16, 19-hexaenoic acid ethyl ester]","rod-b wave, rod-a wave and cone-b wave amplitudes","retinal function; 4 weeks diet, mice not given IVT injections, compared to natural DHA",no significant difference
same,"rod b-wave, rod a-wave and cone-b wave amplitudes","retinal function; iron injected eyes, ≥50% retinal D-DHA, 1 week after injection, compared to DHA plus iron",marked protection
same,retinal structure (toluidine blue histology),retinal structure; 1 week after iron injection,complete protection
same,total retina thickness and outer retina thickness,"retinal structure; IVT iron injected eyes, 1 week after injection",significantly protected and not different from saline injected eyes
same,geographic atrophy development,[1],fully protected
same,% of the DHA in the retina that was D-DHA,"[2]; 0.5% D-DHA diet, 4 weeks",> 55%
same,% of the DHA in the retina that was D-DHA,"[2]; 0.5% D-DHA diet, 5 weeks",> 60%
same,D-DHA in the RPE/choroid/sclera,"[2]; 0.5% D-DHA diet, similar time points (4-5 weeks)",> 80%
same,washout in the RPE/choroid/sclera,"[2]; DHA wash-out diet, compared with retina",more rapid than retina
same,uptake and elimination kinetics,[2]; neural retina and RPE/choroid/sclera,classic first order kinetics
